Measured values taken from BigSolDB 2.1.

Cc1ccc(S(=O)(=O)NC(=O)NN2CC3CCCC3C2)cc1 (stereo not drawn)
solubility (mole fraction)
Conditions	278.15 K	283.15 K	288.15 K	293.15 K	298.15 K	303.15 K	308.15 K	313.15 K	318.15 K
in DMF	0.0571	0.0629	0.0684	0.0743	0.0801	0.0866	0.0935	0.101	0.109
in THF	0.018	0.0217	0.0266	0.0318	0.0384	0.0462	0.0539	0.0635	0.076
in acetone	0.00883	0.0103	0.0121	0.0141	0.0166	0.0191	0.0219	0.0252	0.0291
in acetonitrile	0.00172	0.00211	0.00262	0.00319	0.0039	0.00473	0.00557	0.00658	0.00796
in chloroform	0.0581	0.0641	0.07	0.0773	0.0842	0.0919	0.1	0.109	0.119
in cyclohexanone	0.0112	0.0133	0.0155	0.0181	0.0209	0.0243	0.0278	0.0322	0.0371
in ethanol	0.000739	0.000911	0.00113	0.00137	0.00169	0.00203	0.00249	0.00296	0.00358
in ethyl acetate	0.00146	0.00174	0.00212	0.00248	0.00294	0.00351	0.00411	0.00477	0.00558
in ethyl formate	0.00188	0.00239	0.00297	0.00364	0.00453	0.00549	0.00673	0.0082	0.00976
in isobutanol	0.00042	0.000544	0.000709	0.000916	0.00114	0.00146	0.0018	0.00226	0.00286
in isopropanol	0.000332	0.000439	0.000579	0.000738	0.000945	0.0012	0.00151	0.00192	0.00241
in methanol	0.00122	0.00149	0.00178	0.00216	0.00257	0.00304	0.00358	0.00428	0.00497
in methyl acetate	0.00229	0.00283	0.00339	0.00418	0.00499	0.00588	0.00699	0.00838	0.00982
in n-butanol	0.000624	0.000787	0.000984	0.00123	0.00152	0.00192	0.0023	0.00286	0.00344
in n-propanol	0.000655	0.000831	0.00103	0.00129	0.00162	0.00199	0.00238	0.00291	0.0035
in sec-butanol	0.000505	0.000643	0.000834	0.00106	0.00133	0.00166	0.00205	0.00258	0.00322
in toluene	0.000307	0.000395	0.000499	0.000634	0.000789	0.000979	0.00119	0.0015	0.00181
